Experimental data reported in US10167261B2, “2-oxo-3,4-dihydroquinolin-6-yl sulphonamide CPDS and their use as plant growth regulators” (THE REGENTS OF THE UNIVERSITY OF CALIFORNIA, priority 2014, dated 2019).
Where two headings read alike, the source gives them in different places.

Experiments:
PYR1-HAB1 = PYR1-HAB1 (Arabidopsis thaliana (Mouse-ear cress), UniProt O49686); assay: PP2C activity assay, PYR1-HAB1; assay type: biochemical; conditions: 100 nM PP2C, 200 nM PYR/PYL protein, 4-nitrophenyl phosphate substrate; read-out: IC50 of inhibition of PYR1-HAB1
Chain of PYR1-HAB1 (O49686 whole entry, looked up): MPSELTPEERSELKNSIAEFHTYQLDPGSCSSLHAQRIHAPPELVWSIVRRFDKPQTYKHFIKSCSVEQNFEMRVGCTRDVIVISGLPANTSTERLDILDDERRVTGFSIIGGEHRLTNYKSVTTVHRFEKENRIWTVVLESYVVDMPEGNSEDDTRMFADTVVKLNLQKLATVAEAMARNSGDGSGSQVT
Chain of PYR1-HAB1 (Q9CAJ0 whole entry partner, looked up): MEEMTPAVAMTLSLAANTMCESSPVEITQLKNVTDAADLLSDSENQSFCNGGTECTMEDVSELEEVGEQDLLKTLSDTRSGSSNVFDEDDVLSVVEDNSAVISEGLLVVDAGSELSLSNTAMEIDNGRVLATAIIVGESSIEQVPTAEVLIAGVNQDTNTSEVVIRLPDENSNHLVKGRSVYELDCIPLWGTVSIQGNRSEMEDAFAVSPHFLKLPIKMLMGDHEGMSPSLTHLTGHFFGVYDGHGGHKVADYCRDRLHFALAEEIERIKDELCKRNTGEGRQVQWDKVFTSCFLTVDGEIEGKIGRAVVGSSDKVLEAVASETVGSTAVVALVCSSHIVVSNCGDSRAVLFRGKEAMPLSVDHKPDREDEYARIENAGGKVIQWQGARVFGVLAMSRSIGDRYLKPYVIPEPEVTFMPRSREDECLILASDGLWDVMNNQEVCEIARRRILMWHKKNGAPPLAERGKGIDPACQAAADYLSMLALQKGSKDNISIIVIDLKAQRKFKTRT
Description: (§1) The protein HAB1, a type 2 protein phosphatase (PP2C), is inhibited by PYR/PYL proteins in dependence of abscisic acid or other receptor agonists. The potency of a receptor agonists correlates with the level of inhibition of the PP2C, and therefore the IC50 (PYR1-HAB1) can be used to compare the relative activity of different chemical analogues. Since inhibition of PP2C correlates to inhibition of seed-germination and increase in plant water-use efficiency, it serves as a powerful tool to quantify biological potential of a chemical acting as an analogue of abscisic acid.
(§2) HAB1 and PYL proteins were expressed and purified as described in Park et al. ((2009) Science 324(5930):1068-1071), with minor modifications. To obtain GST-HAB1, the HAB1 cDNA was cloned into pGex-2T. Expression was conducted in BL21[DE3]pLysS host cells. Transformed cells were pre-cultured overnight, transferred to LB medium and cultured at 30° C. to culture A600 of ˜0.5.
(§3) The culture was then cooled on ice and MnCl2 added to 4 mM and IPTG added to 0.3 mM. After 16 hours incubation at 15° C., cells were harvested and recombinant proteins were purified on glutathione agarose as described in Park et al. To obtain 6×His-PYL receptor fusion proteins, expression constructs previously described by Okamoto et al. 2013, (PNAS 110(29): 12132-12137) were used. ABA receptors were expressed and purified as described above.
(§4) For the values shown in Table B5, PP2C activity assays using recombinant receptors and PP2Cs were carried out as follows: purified proteins were pre-incubated in 160 μl assay buffer containing 100 mM Tris-HCl-pH7.9, 100 mM NaCl, 3 μg bovine serum albumin, 0.1% 2-mercaptoethanol, 1 mM MnCl2 with ABA or agonists (compounds of the present invention) for 30 minutes at room temperature. Reactions were started by adding 40 μL of a reaction solution containing 25 mM 4-nitrophenyl phosphate in assay buffer after which absorbance measurements were immediately collected using a 405 nm on Wallac plate reader. Reactions contained 100 nM PP2C and 200 nM PYR/PYL proteins. […] For inferring IC50 values, calculations from receptor/PP2C assays containing different concentrations (ranging from 1 μM to 4 nM) were. The obtained dose response data was fit to a log (inhibitor) versus response-(variable slope) model using non-linear regression to infer the IC50s, using Graph Pad Prism 6.0.

PYL2-HAB1 = PYL2-HAB1 (Arabidopsis thaliana (Mouse-ear cress), UniProt O80992); assay: PP2C activity assay, PYL2-HAB1; assay type: biochemical; conditions: 100 nM PP2C, 200 nM PYR/PYL protein, 4-nitrophenyl phosphate substrate; read-out: IC50 of inhibition of PYL2-HAB1
Chain of PYL2-HAB1 (O80992 whole entry, looked up): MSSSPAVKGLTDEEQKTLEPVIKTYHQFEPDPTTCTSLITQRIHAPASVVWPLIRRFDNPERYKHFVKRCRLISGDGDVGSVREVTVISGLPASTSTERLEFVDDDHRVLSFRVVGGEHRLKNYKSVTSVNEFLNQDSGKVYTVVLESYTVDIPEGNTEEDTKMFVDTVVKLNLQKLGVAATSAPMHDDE
Chain of PYL2-HAB1 (Q9CAJ0 whole entry partner, looked up): as the sequence (Q9CAJ0 whole entry partner, looked up) above
Description: as §1, §2, §3, §4

[1] = test system: corn plants (variety NK OCTET); assay: Water use (WU) of corn plants after foliar spray; assay type: in vivo; conditions: foliar spray at 500 μM, vs negative control; for Total % WU 0 to 2 DAA: cumulative
Method: Compounds were tested for their effect on reducing plant water use as follows. The compounds were applied by foliar spray to 12 day old corn plants (variety NK OCTET) grown in controlled environment plant growth chambers. All compounds were applied using an emulsifiable concentrate (EC) formulation that was diluted to the desired concentrations with water containing 0.4% of the adjuvant rape seed methyl ester. Plant water use during the day was assessed by repeated weighing of the pots in which the plants were grown before and after application of the compounds at the indicated times (expressed in days after application (DAA)). The water use data before application was used to correct any differences in water use arising due to non-treatment effects (e.g. due to differences in plant size). The untransformed water use values were subjected to an analysis of covariance, fitting the effect of treatment and using the baseline water use 1 day before application as a covariate. Application of the chemicals (0 DAA) takes place approximately between 8 to 9:30 a.m. WU is measured within day time (chamber light is on 6:00 to 20:00) at these timepoints: 0 DAA AM (10:30-12:50) and 0 DAA PM (14:00-19:50), 1 DAA AM (7:30-12:50) and 1 DAA PM (14:00-19:50) and 2 DAA AM (7:30-12:50). The cumulative total WU (0-2 DAA) is calculated by summing the WU data mentioned above.

[2] = test system: soybean plants (variety S20-G7); assay: Water use (WU) of soybean plants after foliar spray; assay type: in vivo; conditions: for Total % WU 0 to 2 DAA: cumulative; for change in vivo at 100 µM / change in vivo at 500 µM: Glycine max, vs negative control; for change in vivo at 100 µM / Total 0 to 2 DAA / change in vivo at 500 µM: foliar spray; for Total 0 to 2 DAA: cumulative WU vs negative control
Method: Chemicals were tested for their effect on reducing plant water use (WU) after being applied by foliar sprays onto soybean plants (variety S20-G7)—grown in controlled environment plant growth chambers. All chemicals were applied using an emulsifiable concentrate (EC) formulation that was diluted with water containing additional surfactant (EXTRAVON 1 g/20 L) to the indicated concentrations. Plant WU was assessed by multiple pot weighing processes before and after application of the chemicals at the indicated times (expressed in days after application (DAA)). The WU data before application was used to correct for differences in water use due to non-treatment effects (e.g. due to differences in plant size). The results are expressed compared to negative control treatment (water with EXTRAVON 1 g/20 L).
Application of the chemicals (0 DAA) takes place approximately between 8 to 9:30 a.m. […] The cumulative total WU (0-2 DAA) is calculated by summing the WU data mentioned above.

[3] = test system: corn plants (variety NK OCTET); assay: Water use (WU) of corn plants after foliar spray; assay type: in vivo; conditions: foliar spray at 500 μM, vs negative control
[4] = repeated experiment (Table B2), rate not given
[5] = 0 h, application rate 100 μM, read-out: % WU 0 DAA AM
[6] = 0 h, application rate 100 μM, read-out: % WU 0 DAA PM
[7] = 24 h, application rate 100 μM, read-out: % WU 1 DAA AM
[8] = 24 h, application rate 100 μM, read-out: % WU 1 DAA PM
[9] = 48 h, application rate 100 μM, read-out: % WU 2 DAA AM

SMILES	IC50 (PYR1-HAB1) [nM]	IC50 (PYL2-HAB1) [nM]	Total % WU 0 to 2 DAA [1] [%]	% WU 0 DAA AM [1] [%]	% WU 0 DAA PM [1] [%]	% WU 1 DAA AM [1] [%]	% WU 1 DAA PM [1] [%]	% WU 2 DAA AM [1] [%]	% WU 2 DAA PM [2, 4] [%]	Total % WU 0 to 2 DAA [2, 4] [%]	% WU 2 DAA PM [3] [%]	further results
CCCN1C(=O)CCc2cc(NS(=O)(=O)Cc3ccc(C4CC4)cc3)ccc21 [Compound 1.004, 1-(4-cyclopropylphenyl)-N-(2-oxo-1-propyl-3,4-dihydroquinolin-6-yl)methanesulfonamide]	51	177	−11.8	−17.9	−12.4	−12.4	−12.1	−9.8	−12.9	−25	−10.2	–
CCCN1C(=O)CCc2cc(NS(=O)(=O)Cc3ccc(C4CC4)cc3)cc(Cl)c21 [Compound 1.025, N-(8-chloro-2-oxo-1-propyl-3,4-dihydroquinolin-6-yl)-1-(4-cyclopropylphenyl)methanesulfonamide]	83	114	–	–	–	–	–	–	−13.6	−22.1	–	–
CCN1C(=O)CC(C)c2cc(NS(=O)(=O)Cc3ccc(C4CC4)cc3)ccc21 (stereo not drawn) [Compound 1.178, 1-(4-cyclopropylphenyl)-N-(1-ethyl-4-methyl-2-oxo-3,4-dihydroquinolin-6-yl)methanesulfonamide]	–	–	−9.7	−18.5	−13	−11.2	−9.2	−6.5	−36.5	−45.4	−5.8	–
CCCN1C(=O)CC(C)c2cc(NS(=O)(=O)Cc3ccc(C4CC4)cc3)ccc21 (stereo not drawn) [Compound 1.179]	82	64	–	–	–	–	–	–	–	–	–	–
CCN1C(=O)CCc2cc(NS(=O)(=O)Cc3ccc(C4CC4)cc3)cc(F)c21 [Compound 1.213, 1-(4-cyclopropylphenyl)-N-(1-ethyl-8-fluoro-2-oxo-3,4-dihydroquinolin-6-yl)methanesulfonamide]	21	244	−11.4	−18.2	−15.5	−13.4	−11.2	−7.9	−38.7	−45.8	−7	–
CCCN1C(=O)CCc2cc(NS(=O)(=O)Cc3ccc(C4CC4)cc3)cc(F)c21 [Compound 1.214, 1-(4-cyclopropylphenyl)-N-(8-fluoro-2-oxo-1-propyl-3,4-dihydroquinolin-6-yl)methanesulfonamide]	28	130	–	–	–	–	–	–	–	–	–	–
CCCN1C(=O)CCc2cc(NS(=O)(=O)Cc3ccc(C4CCC4)cc3)ccc21 [Compound 5.004, 1-(4-cyclobutylphenyl)-N-(2-oxo-1-propyl-3,4-dihydroquinolin-6-yl)methanesulfonamide]	–	–	−4.9	−8.9	−8.8	−5.6	−5.9	−1.7	3.9	−3	−2.3	–
CCCN1C(=O)CCc2cc(NS(=O)(=O)Cc3ccc(C4CC(=O)C4(C)C)cc3)ccc21 (stereo not drawn) [Compound 8.004, 1-[4-(2,2-dimethyl-3-oxo-cyclobutyl)phenyl]-N-(2-oxo-1-propyl-3,4-dihydroquinolin-6-yl)methanesulfonamide]	–	–	–	–	–	–	–	–	1	−0.7	–	–
CCCN1C(=O)CCc2cc(NS(=O)(=O)Cc3ccc(C4CCCC4)cc3)ccc21 [Compound 9.004, 1-(4-cyclopentylphenyl)-N-(2-oxo-1-propyl-3,4-dihydroquinolin-6-yl)methanesulfonamide]	97	> 1000	–	–	–	–	–	–	0.5	−1.4	–	–
CCCN1C(=O)CCc2cc(NS(=O)(=O)Cc3ccc(C)cc3)ccc21 [Quinabactin, quinabactin, reference compound]	104	262	–	–	–	–	–	–	−11	−16	–	% WU 0 DAA AM [2, 4]: −22%; % WU 0 DAA PM [2, 4]: −23%; % WU 1 DAA AM [2, 4]: −17%; % WU 1 DAA PM [2, 4]: −15%; % WU 2 DAA AM [2, 4]: −12%
CCCN1C(=O)CCc2cc(NS(=O)(=O)Cc3ccc(C)cc3)ccc21 [drawing 25, reference compound]	–	–	–	–	–	–	–	–	–	–	–	change in vivo at 100 µM [2, 5]: -1.3%; change in vivo at 100 µM [2, 6]: -0.7%; change in vivo at 100 µM [2, 7]: -2.2%; change in vivo at 100 µM [2, 8]: -0.2%; change in vivo at 100 µM [2, 9]: -3.4%; Total 0 to 2 DAA ([2]; application rate 100 μM): −2.0%
CCCN1C(=O)CCc2cc(NS(=O)(=O)Cc3ccc(C4CC4)cc3)ccc21 [drawing 26]	–	–	–	–	–	–	–	–	–	–	–	change in vivo at 100 µM [2, 5]: -0.8%; change in vivo at 100 µM [2, 6]: -3.8%; change in vivo at 100 µM [2, 7]: -3%; change in vivo at 100 µM [2, 8]: -2.8%; change in vivo at 100 µM [2, 9]: -5.2%; Total 0 to 2 DAA ([2]; application rate 100 μM): −3.8%
CCCN1C(=O)CCc2cc(NS(=O)(=O)Cc3ccc(C4CC4)cc3)ccc21 [drawing 27]	–	–	–	–	–	–	–	–	–	–	–	change in vivo at 500 µM ([2]; 0 h, application rate 500 μM, read-out: % WU 0 DAA AM): -8.8%; change in vivo at 500 µM ([2]; 0 h, application rate 500 μM, read-out: % WU 0 DAA PM): -10.7%; change in vivo at 500 µM ([2]; 24 h, application rate 500 μM, read-out: % WU 1 DAA AM): -9.4%; change in vivo at 500 µM ([2]; 24 h, application rate 500 μM, read-out: % WU 1 DAA PM): -6.4%; change in vivo at 500 µM ([2]; 48 h, application rate 500 μM, read-out: % WU 2 DAA AM): -6.1%; Total 0 to 2 DAA ([2]; application rate 500 μM): −8.9%
